Laboratory results: ChEMBL document CHEMBL1132407, “Combinatorial library of serine and cysteine protease inhibitors that interact with both the S and S' binding sites” (J Med Chem, 1999)

How the values were obtained:
Plasminogen = Plasminogen (Homo sapiens, UniProt P00747); assay: Inhibitory activity against plasmin
Papain = target: T1, Papain (Carica papaya, UniProt P00784); assay: Inhibitory activity against papain
T1 sequence (P00784 whole entry): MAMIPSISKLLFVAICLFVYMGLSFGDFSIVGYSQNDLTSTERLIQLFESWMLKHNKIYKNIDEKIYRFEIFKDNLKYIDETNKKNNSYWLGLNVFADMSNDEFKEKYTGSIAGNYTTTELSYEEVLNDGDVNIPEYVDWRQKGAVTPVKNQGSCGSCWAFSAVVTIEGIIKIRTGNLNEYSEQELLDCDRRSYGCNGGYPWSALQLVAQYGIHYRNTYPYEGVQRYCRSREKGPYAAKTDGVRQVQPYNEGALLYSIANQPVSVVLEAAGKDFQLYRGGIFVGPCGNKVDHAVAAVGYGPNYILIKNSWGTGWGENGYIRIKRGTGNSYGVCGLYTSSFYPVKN

Cathepsin B = Cathepsin B (Homo sapiens, UniProt P07858); assay: Inhibitory activity against Cathepsin B

Plasminogen, sequence (P00747 97-580 limits assumed): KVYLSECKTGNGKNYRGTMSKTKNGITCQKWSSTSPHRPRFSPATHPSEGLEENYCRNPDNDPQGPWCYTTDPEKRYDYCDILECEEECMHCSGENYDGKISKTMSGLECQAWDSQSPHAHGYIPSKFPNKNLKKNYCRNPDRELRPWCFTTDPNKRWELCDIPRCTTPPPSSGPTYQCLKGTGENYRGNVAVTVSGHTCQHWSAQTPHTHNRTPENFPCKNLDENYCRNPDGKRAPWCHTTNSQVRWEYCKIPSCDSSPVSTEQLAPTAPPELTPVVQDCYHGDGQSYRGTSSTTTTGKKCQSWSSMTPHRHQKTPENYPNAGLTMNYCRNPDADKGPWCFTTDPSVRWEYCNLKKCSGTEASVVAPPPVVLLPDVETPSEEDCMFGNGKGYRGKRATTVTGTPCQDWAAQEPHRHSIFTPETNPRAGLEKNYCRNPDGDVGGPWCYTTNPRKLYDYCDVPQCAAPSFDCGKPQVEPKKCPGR
Plasminogen, sequence (P00747 581-810 limits assumed): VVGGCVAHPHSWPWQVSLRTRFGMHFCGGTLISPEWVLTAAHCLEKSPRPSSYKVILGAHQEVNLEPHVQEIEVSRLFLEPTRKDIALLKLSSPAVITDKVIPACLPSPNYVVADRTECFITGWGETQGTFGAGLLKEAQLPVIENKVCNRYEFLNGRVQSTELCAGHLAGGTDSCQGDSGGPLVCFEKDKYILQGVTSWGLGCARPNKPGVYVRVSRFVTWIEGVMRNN

SMILES	Ki (Plasminogen) [µM]	Ki (Papain) [µM]	Ki (Cathepsin B) [µM]
O=C(CC[C@H]1CCC[C@@H](NC(=O)[C@H](Cc2c[nH]c3ccccc23)NC(=O)OCc2ccccc2)C1=O)N[C@@H](Cc1ccccc1)C(=O)O (stereo in doubt; 16B)	150		
O=C(CC[C@H]1CCC[C@@H](NC(=O)[C@H](Cc2ccccc2)NC(=O)OCc2ccccc2)C1=O)N[C@@H](Cc1c[nH]c2ccccc12)C(=O)O	420	490	
O=C(CC[C@H]1CCC[C@@H](NC(=O)[C@H](Cc2ccccc2)NC(=O)OCc2ccccc2)C1=O)N[C@@H](Cc1ccccc1)C(=O)O	3000	870	1100
O=C(CC[C@H]1CCC[C@@H](NC(=O)[C@H](Cc2c[nH]c3ccccc23)NC(=O)OCc2ccccc2)C1=O)N[C@@H](Cc1ccccc1)C(=O)O (stereo in doubt; 16A)	100	250	
O=C(CC[C@H]1CCC[C@@H](NC(=O)[C@H](Cc2c[nH]c3ccccc23)NC(=O)OCc2ccccc2)C1=O)N[C@@H](Cc1c[nH]c2ccccc12)C(=O)O (stereo in doubt)	10		
O=C(CC[C@H]1CCC[C@@H](NC(=O)[C@H](Cc2c[nH]c3ccccc23)NC(=O)OCc2ccccc2)C1=O)N[C@@H](Cc1c[nH]c2ccccc12)C(=O)O (stereo in doubt; 15A)	5	380	
